Calls of active or inactive are those of the source. The calls are words filed in the database; no cut-off is given here.
Key:
HepG2 = assay: Cytotoxicity against human HepG2 cells by CCK8 assay; format: functional, cell-based
A549 [1] = assay: Inhibition of serum-induced cell migration in human A549 cells at 0.5 to 2 times IC50 measured up to 46 hrs by wound healing assay; format: functional, cell-based
MCF7 = assay: Cytotoxicity against human MCF7 cells by CCK8 assay; format: functional, cell-based
[2] = Cytotoxicity against HUVEC12 cells by CCK8 assay; format: cell-based; settings: Homo sapiens
HeLa [3] = assay: Inhibition of serum-induced cell migration in human HeLa cells at 0.5 to 2 times IC50 measured up to 17 hrs by wound healing assay; format: functional, cell-based
CNE-2 = assay: Cytotoxicity against human CNE2 cells by CCK8 assay; format: functional, cell-based
HeLa [4] = assay: Cytotoxicity against human HeLa cells by CCK8 assay; format: functional, cell-based
L02 = assay: Cytotoxicity against human L02 cells by CCK8 assay; format: cell-based
[5] = Inhibition of serum-induced cell migration in HUVEC12 cells at 0.5 to 2 times IC50 measured up to 17 hrs by wound healing assay; format: cell-based; settings: human
A549 [6] = assay: Cytotoxicity against human A549 cells by CCK8 assay; format: functional, cell-based

Row | SMILES | IC50 (HepG2) | inhibition (A549 [1]) | IC50 (MCF7) | IC50 [2] | inhibition (HeLa [3]) | IC50 (CNE-2) | IC50 (HeLa [4]) | IC50 (L02) | Activity [5] | IC50 (A549 [6])
1 | C[C@@H]1C[C@H](C)C[C@H](C)[C@@H](O)CC(=O)O[C@@H]([C@@H]2CCC[C@H]2C(=O)O)C/C=C\C=C(/C#N)[C@@H](O)[C@@H](C)C1 | 2.05 µM | Active | 0.12 µM | 6.13 µM | Active | 1.27 µM | 1.28 µM | 7.26 µM | Non-Toxic | 1.22 µM
2 | CC(=O)NC/C1=C/C=C/C[C@H]([C@@H]2CCC[C@H]2C(=O)O)OC(=O)C[C@H](O)[C@@H](C)C[C@@H](C)C[C@@H](C)C[C@H](C)[C@@H]1O | > 50 µM | inactive | > 50 µM | > 50 µM | inactive | > 50 µM | > 50 µM | > 50 µM | – | > 50 µM
3 | C[C@@H]1C[C@H](C)C[C@H](C)[C@@H](O)CC(=O)O[C@@H]([C@@H]2CCC[C@H]2C(=O)O)C/C=C/C=C(/C#N)[C@@H](O)[C@@H](C)C1 | 14.6 µM | – | 1.21 µM | 12 µM | – | 9.35 µM | 11.6 µM | 8.73 µM | – | 9.2 µM
4 | COc1cccc2c1C(=O)c1c(O)c3c(c(O)c1C2=O)C[C@@](O)(C(=O)CO)C[C@@H]3O[C@H]1C[C@H](N)[C@H](O)[C@H](C)O1 [DOXORUBICIN] | 1.13 µM | – | – | 34.2 µM | – | 3.52 µM | – | 13.2 µM | – | 3.41 µM
5 | C[C@@H]1C[C@H](C)C[C@H](C)[C@@H](O)CC(=O)O[C@@H]([C@@H]2CCC[C@H]2C(=O)O)C/C=C/C=C(/C#N)[C@H](O)[C@@H](C)C1 | 2.19 µM | – | 0.12 µM | 1.44 µM | – | 1.55 µM | 2.19 µM | 0.98 µM | – | 1.69 µM
6 | C[C@@H]1C[C@H](C)C[C@H](C)[C@@H](O)CC(=O)O[C@@H]([C@@H]2CCC[C@H]2C(=O)O)C/C=C\C=C(/C#N)[C@H](O)[C@@H](C)C1 | 17.5 µM | – | 1.15 µM | 14.3 µM | – | 14.4 µM | 15.1 µM | 22.8 µM | – | 15.2 µM

Reference: ChEMBL document CHEMBL4219074, “Borrelidins F-I, cytotoxic and cell migration inhibiting agents from mangrove-derived Streptomyces rochei SCSIO ZJ89” (Bioorg Med Chem, 2018)
